Measurements taken from publication PMC9032233, “2-{5-[(Z,2Z)-2-Chloro-3-(4-nitrophenyl)-2-propenylidene]-4-oxo-2-thioxothiazolidin-3-yl}-3-methylbutanoic Acid as a Potential Anti-Breast Cancer Molecule” (International Journal of Molecular Sciences, 2022).

How the values were obtained:
LC3B = LC3B concentration in MCF-7 cell lysates (ELISA); format: cell-based, human; details: 24 h, control 1.194 ng/mL
Procedure: (§1) High sensitivity assay kits (EIAab Science Co., Ltd., Wuhan, China; Abcam plc., Cambridge, United Kingdom; Cloud-Clone Corp., Katy, TX, USA) were used to determine the concentrations of selected proteins in cell lysates […] In brief, after trypsinization, cells were washed thrice with cold PBS and centrifuged at 1000× g for 5 min at 4 °C. Then, cells (1.5 × 10^6) were suspended in lysis buffer for whole-cell lysates. After the second centrifugation, cellular supernatants were frozen immediately at −70 °C. Untreated cancer cells were taken as a control.
(§2) The microtiter plates provided in the kits were pre-coated with an antibody specific to the analyzed antigen. The tests were carried out according to the manufacturer’s protocols.

CYP3A4 = target: T1, CYP3A4 (Homo sapiens, UniProt P08684); assay: Luminescent CYP3A4 P450-Glo assay; format: in vitro ADME; details: at 10 and 25 µM
T1 construct: purchased Promega (Madison, WI, USA)
T1 sequence (P08684 whole entry): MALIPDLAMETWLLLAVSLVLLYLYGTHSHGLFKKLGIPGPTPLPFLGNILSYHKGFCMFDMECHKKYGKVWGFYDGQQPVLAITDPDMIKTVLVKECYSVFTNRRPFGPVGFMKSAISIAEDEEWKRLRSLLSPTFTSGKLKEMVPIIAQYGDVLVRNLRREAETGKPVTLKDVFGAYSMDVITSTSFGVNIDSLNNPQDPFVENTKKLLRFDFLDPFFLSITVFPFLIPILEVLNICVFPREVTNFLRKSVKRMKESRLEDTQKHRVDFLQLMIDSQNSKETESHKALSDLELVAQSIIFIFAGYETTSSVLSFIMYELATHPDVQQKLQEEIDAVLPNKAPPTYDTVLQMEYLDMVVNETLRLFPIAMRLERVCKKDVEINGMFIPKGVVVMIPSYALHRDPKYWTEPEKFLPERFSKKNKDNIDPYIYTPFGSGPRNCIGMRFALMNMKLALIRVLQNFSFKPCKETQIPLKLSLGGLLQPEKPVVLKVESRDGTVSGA
Procedure: For investigation of potential drug-drug interactions, the luminescent CYP3A4 and CYP2D6 P450-Glo assays obtained from Promega® (Madison, WI, USA) were used. Les-3331 was tested in triplicate at the final concentrations from 0.01 to 25 µM according to the protocols provided by Promega®. The reference inhibitors were tested at 1 µM. The luminescent signal was measured using a microplate reader, EnSpire PerkinElmer (Waltham, MA, USA).

topoisomerase IIα = assay: Flow cytometric analysis of anti-topoisomerase IIα antibody, MDA-MB-231; format: cell-based, human; details: 24 h
Procedure: To confirm the ELISA results, flow cytometric analysis of Top II activity using an anti-topoisomerase IIα antibody conjugated with phycoerythrin (PE) was performed. The Les-3331 and etoposide were used at 1 µM and 5 µM concentrations. Cancer cells were incubated for 24 h with tested compounds and the assay was carried out in accordance with the manufacturer’s protocol. Briefly, cells were centrifuged and resuspended in 4% formaldehyde. Then, cells were incubated at RT for 15 min and subsequently washed with excess PBS and centrifuged. Thereafter, ice-cold 90% methanol was added to the cells and they were incubated for 1 h in an ice bath. Next, cells were washed with excess PBS and centrifuged again. In the meantime, the primary antibody was diluted (1:100) in PBS. Then, cells were resuspended in the prepared primary antibody (100 µL) and incubated at RT, protected from light, for 1 h. Finally, cells were washed and resuspended in PBS (300 µL). The prepared samples were measured immediately. Analysis of the obtained results was performed using a flow cytometer (BD FACSCanto II, Becton Dickinson Biosciences Systems, San Jose, CA, USA) and FACSDiva software (v6.1.3, BD Biosciences Systems, San Jose, CA, USA). The equipment was calibrated with BD Cytometer Setup and Tracking Beads (BD Biosciences, San Diego, CA, USA).

MCF-7 cells = assay: Annexin V binding assay (flow cytometry), MCF-7; format: cell-based, human; details: 24 h
Procedure: The effect of Les-3331 and reference drug on the induction of apoptosis process in human breast cancer cell lines was evaluated using a flow cytometer (BD FACSCanto II, Becton Dickinson Biosciences Systems, San Jose, CA, USA) and Annexin V binding Apoptosis Detection Kit II (BD Biosciences, San Diego, CA, USA). The Les-3331 and reference drug were used in 1 µM and 5 µM concentrations. The test was carried out after 24 h incubation with the tested compounds according to the manufacturer’s protocol and was previously described by our research group. Analysis of the obtained results was performed using FACSDiva software (version 6.1.3, BD Biosciences Systems, San Jose, CA, USA). The equipment was calibrated with BD Cytometer Setup and Tracking Beads (BD Biosciences, San Diego, CA, USA).

[1] = system: MDA-MB-231 human breast cancer cells; assay: MTT cell viability assay, MDA-MB-231; format: cell-based; details: MDA-MB-231, MTT, 24 h incubation
Procedure: Cell culture MCF-7, MDA-MB-231 human breast cancer cells, and fibroblasts skin cells were purchased from the ATCC—American Type Culture Collection. All cell lines were maintained in DMEM (Corning, Kennebunk, ME, USA). The medium was supplemented with 10% fetal bovine serum—FBS (Eurx, Gdansk, Poland) and 1% antimicrobial substances: penicillin–streptomycin (Corning, Kennebunk, ME, USA). The incubator asserted appropriate growth conditions required for these cell lines: 5% of CO2, at 37 °C, with the humidity between 90–95%. Cells were seeded in 100 mm round dishes. An amount of 0.05% trypsin containing 0.02% EDTA (Corning, Kennebunk, ME, USA) and phosphate-buffered saline (PBS) without calcium and magnesium (Corning, Kennebunk, ME, USA) was used to detach cells from a plate once 80–90% cell confluence was achieved. In the next step, cells were reseeded in six-well plates (density—5 × 10^5 of cells per well) in 1 mL of DMEM after a 24 h incubation used in the presented tests.
To examine the effect of Les-3331 on cell viability, the MTT assay was performed. […] The absorbance was measured using Spectrophotometer UV-VIS Helios Gamma (Unicam/ThermoFisher Scientific Inc., Waltham, MA, USA) at a wavelength of 570 nm. The obtained absorbance in untreated control cells was taken as 100%, while the survival of the cells incubated with tested compounds presented as a percentage of the control value.

topoisomerase II = assay: Topoisomerase II concentration in MDA-MB-231 cell lysates (ELISA); format: cell-based, human; details: 24 h, control 2.700 ng/mL
Procedure: High sensitivity assay kits (EIAab Science Co., Ltd., Wuhan, China; Abcam plc., Cambridge, United Kingdom; Cloud-Clone Corp., Katy, TX, USA) were used to determine the concentrations of selected proteins in cell lysates after 24 h incubation with novel compound and reference drug in 1 µM and 5 µM concentrations. In brief, after trypsinization, cells were washed thrice with cold PBS and centrifuged at 1000× g for 5 min at 4 °C. Then, cells (1.5 × 10^6) were suspended in lysis buffer for whole-cell lysates. After the second centrifugation, cellular supernatants were frozen immediately at −70 °C. Untreated cancer cells were taken as a control.
as §2

Beclin-1 = Beclin-1 concentration in MCF-7 cell lysates (ELISA); format: cell-based, human; details: 24 h, control 7.965 ng/mL
Procedure: as §1, §2

SMILES	LC3B concentration (LC3B; MCF-7, 5 µM) [ng/mL]	effect on CYP3A4 activity (CYP3A4)	% of cells without anti-topoisomerase IIα antibody (topoisomerase IIα; MDA-MB-231, 1 µM) [%]	% of cells without anti-topoisomerase IIα antibody (topoisomerase IIα; MDA-MB-231, 5 µM) [%]	% of late and early apoptotic cells (MCF-7 cells; MCF-7, 1 µM) [%]	% of late and early apoptotic cells (MCF-7 cells; MCF-7, 5 µM) [%]	IC50 [1] [µM]	Top II concentration (topoisomerase II; MDA-MB-231, 1 µM) [ng/mL]	Top II concentration (topoisomerase II; MDA-MB-231, 5 µM) [ng/mL]	Beclin-1 concentration (Beclin-1; 1 µM) [ng/mL]	Beclin-1 concentration (Beclin-1; 5 µM) [ng/mL]	LC3B concentration (LC3B; MCF-7, 1 µM) [ng/mL]
CC(C)C(C(=O)O)N1C(=O)/C(=C/C(Cl)=C/c2ccc([N+](=O)[O-])cc2)SC1=S (stereo not shown) [Les-3331, 2-{5-[(Z,2Z)-2-chloro-3-(4-nitrophenyl)-2-propenylidene]-4-oxo-2-thioxothiazolidin-3-yl}-3-methylbutanoic acid]	1.002	activated	5.4	30.9	6.5	40.4	15.2	2.508	1.436	7.435	3.948	–
COc1cc([C@@H]2c3cc4c(cc3[C@@H](O[C@@H]3O[C@@H]5CO[C@@H](C)O[C@H]5[C@H](O)[C@H]3O)[C@H]3COC(=O)[C@H]23)OCO4)cc(OC)c1O [Etoposide, reference compound]	0.779	–	7.5	9.1	10.7	10.7	> 50	2.175	2.003	7.848	6.686	1.157
